# Key:
# [1] = tested on: Normal human N6KA fibroblasts; assay: In vitro growth test on normal cells, N6KA fibroblasts; format: cell-based
# Procedure: (§1) An appropriate amount of NFD was dissolved in DMSO to give a 1.0 mg/ml stock solution, which was diluted as necessary before use.
# (§2) The following cells in the late logarithmic phase were harvested after treatment with trypsin (containing 0.25% trypsin and 0.02% EDTA; 37° C., 3 min) and used in the test: human lung adenocarcinoma cell lines A-549, VMRC-LCD and SK-LU-1, human lung squamous cell carcinoma Calu-1 cells, human colon adenocarcinoma WiDr cells, human prostate cancer LNCaP cells, human vaginal squamous cell carcinoma A-431 cells, human cervical carcinoma HeLa cells, human cholangiocarcinoma HuCC-T1 cells, mouse skin cancer melanoma B16 (M4) cells, human pancreatic carcinoma ASPC-1 cells, human neuroblastoma IMR-132 cells, human lung small cell carcinoma SCCH-194 cells, human uninary bladder carcinoma T24 cells, human renal cell carcinoma […] cells, human gastric cancer NUGC-2 cells, human thyroid carcinoma 8305C cells, human hepatoma HUH-7 cells, human ovarian carcinoma TYK-nu cells and human chorio carcinoma BeWo cells. […] These cells were plated onto a 96-well microplate at a density of 5-10×10^3 cells/cm^2 using DMEM or RPMI-1640 medium containing 10% fetal bovine serum and cultured for 24 hours in a conventional manner, after which a pre-determined amount of NFD dissolved in DMSO was added to each well. […]
# [2] = tested on: Human pancreatic carcinoma ASPC-1 cells; assay: In vitro antitumor test (trypan blue exclusion viable cell count), ASPC-1; format: cell-based
# Procedure: as §1, §2
# [3] = tested on: carcinogenic promotion (skin papillomas in mice); assay: Inhibition of two-step skin carcinogenesis in mice skin; format: in vivo, mouse (female ICR); conditions: DMBA initiator, TPA promoter, 20 weeks; FIG. 28 (NFD 85 nmol), FIG. 29 (lapacoal)
# Procedure: Female ICR mice were used as test animals. Fifteen mice were housed in a cage and kept on a commercial pellet diet and drinking water ad libitum until the end of the experiment. The mice were purchased at their age of six-week-old. Dorsal hair of mice was shaved, and next day, 390 nmol of 7,12-dimethylbenz(a)anthracene (DMBA) in 0.1 ml acetone was applied, as an initiator, on the shaved back. One week later, 1.7 nmol of 12-O-tetradecanoylphorbol-13-acetate (TPA) in 0.1 ml acetone was applied, as a promoter, to the same place twice a week. This procedure was repeated for 20 weeks.
# Mice were observed once a week for the number of papillomas larger than 1 mm, and the experimental results were given as the percentage of papilloma-bearing mice in each group and the number of papillomas per mouse.
# [4] = tested on: Human hepatoma HuH-7 cells; assay: In vitro antitumor test (trypan blue exclusion viable cell count), HuH-7; format: cell-based
# Procedure: as §1, §2
# [5] = tested on: Human lung small cell carcinoma SCCH-194 cells; assay: In vitro antitumor test (trypan blue exclusion viable cell count), SCCH-194; format: cell-based
# Procedure: as §1, §2
# [6] = tested on: Human chronic myelogenous leukemia K562 cells; assay: In vitro antitumor test (trypan blue exclusion viable cell count), K562; format: cell-based; conditions: 72 h, three days exposure, read-out: LD50 (IC50), 50% growth-inhibitory dose
# Procedure: as §1, §2
# [7] = General toxicology in ICR mice; conditions: mouse, in vivo, ICR mice (male)
# [8] = tested on: Human vaginal squamous cell carcinoma A-431 cells; assay: In vitro antitumor test (trypan blue exclusion viable cell count), A-431; format: cell-based
# Procedure: as §1, §2
# [9] = tested on: Human cholangiocarcinoma HuCC-T1 cells; assay: In vitro antitumor test (trypan blue exclusion viable cell count), HuCC-T1; format: cell-based
# Procedure: as §1, §2
# [10] = tested on: Human uninary bladder carcinoma T24 cells; assay: In vitro antitumor test (trypan blue exclusion viable cell count), T24; format: cell-based
# Procedure: as §1, §2
compound,measurement,setting,value
"CC(O)c1cc2c(o1)C(=O)c1cccc(O)c1C2=O (stereo not drawn) [NFD, 2-(1-hydroxyethyl)-5-hydroxynaphtho[2,3-b]furan-4,9-dione]",adverse effects on growth of normal cells,"[1]; FIG. 24, at concentrations which cause necrosis in tumor cells",no adverse effects
same,IC50,"[1]; Homo sapiens, Fibroblast, 72 h, N6KA normal fibroblasts, three days exposure, read-out: LD50 (IC50), 50% growth-inhibitory dose",0.084 µg/mL
same,IC50,"[2]; ASPC1, 72 h, ASPC-1, three days exposure, read-out: LD50 (IC50), 50% growth-inhibitory dose",0.017 µg/mL
same,IC (almost complete),"[2]; ASPC1, FIG. 13, read-out: concentration inhibiting growth almost completely",0.0335 µg/mL
same,inhibitory effect on carcinogenic promotion in skin,[3],inhibitory effect
same,IC50,"[4]; 72 h, HuH-7, three days exposure, read-out: LD50 (IC50), 50% growth-inhibitory dose",0.0055 µg/mL
same,IC (almost complete),"[4]; Huh-7, FIG. 21, read-out: concentration inhibiting growth almost completely",0.02 µg/mL
same,IC50,"[5]; 72 h, SCCH-194, three days exposure, read-out: LD50 (IC50), 50% growth-inhibitory dose",0.01 µg/mL
same,IC (almost complete),"[5]; FIG. 15, read-out: concentration inhibiting growth almost completely",0.03 µg/mL
same,IC50,[6],0.014 µg/mL
same,LD50,"[7]; ip, intraperitoneally",7.3 mg/kg
same,LD50,"[7]; po, orally",8.4 mg/kg
same,IC50,"[8]; 72 h, three days exposure, read-out: LD50 (IC50), 50% growth-inhibitory dose",0.021 µg/mL
same,IC (almost complete),"[8]; FIG. 7, read-out: concentration inhibiting growth almost completely",0.0279 µg/mL
same,IC50,"[9]; HuCCT-1, 72 h, HuCC-T1, three days exposure, read-out: LD50 (IC50), 50% growth-inhibitory dose",0.02 µg/mL
same,IC (almost complete),"[9]; HuCCT-1, FIG. 9, read-out: concentration inhibiting growth almost completely",0.0224 µg/mL
same,IC50,"[10]; T-24, 72 h, T24, three days exposure, read-out: LD50 (IC50), 50% growth-inhibitory dose",0.021 µg/mL
same,IC (almost complete),"[10]; T-24, FIG. 16, read-out: concentration inhibiting growth almost completely",0.023 µg/mL
